Results: patent US20200337311A1 (priority 2017, published 2020)

Experiments:
Meloidogyne incognita [1] = assay: Meloidogyne incognita in vivo test on cucumber plants (gall rating); conditions: 300 ppm; soil application to cucumber seedlings; 15 days after application; untreated check up to 8
Method: (§1) Meloidogyne incognita: In Vivo Test
Cucumber plants were grown in seedling tray containing mixture of Sand:Soil:FYM:Cocopeat in ratio of 1:1:1:1. One mL of test compound at tested concentration was applied into the soil mixture with the help of micropipette when the cucumber seedlings ten days old. Approximately 2000 freshly hatched second-stage juveniles of Meloidogyne incognita were inoculated. The treated plants were allowed to grow at 27° C. temperature in greenhouse. Observation of gall rating was recorded after 15 days of application. Plants were carefully uprooted and roots were washed thoroughly. The gall rating was observed on 0-10 scale as described by Zeck (1971) as mentioned below: • 0=no galls • 1=very few small galls • 2=numerous small galls • 3=numerous small galls of which some are grown together • 4=numerous small and some big galls • 5=25% of roots severely galled • 6=50% of roots severely galled • 7=75% of roots severely galled • 8=no healthy roots but plant is still green • 9=roots rotting and plant dying • 10=plant and roots dead
recorded less than 3 gall rating in the tests, where there was extensive galling (up to 8) in untreated check.

Meloidogyne incognita [2] = assay: Meloidogyne incognita (root-knot nematode) in vitro test; conditions: 300 ppm; 50 juveniles in 500 μL water, 25° C.; counted at 48, 72 and 96 h; no mortality in untreated check
Method: Example 1: Meloidogyne incognita (Root-Knot Nematode): In Vitro Test
The test compounds at a concentration of 300 ppm were introduced into 500 μL of distilled water containing 50 Meloidogyne incognita juveniles into 24-well plates. The suspension was lightly shaken for uniform mixing of compounds. The test plates were covered with lids, and were kept for incubation at 25° C. temperature and 90% relative humidity. […] Compounds
as §1

SMILES	gall rating (0-10 scale, Zeck 1971) (Meloidogyne incognita [1])	mortality (Meloidogyne incognita [2])
N#Cc1cnc([S+]([O-])CCC(F)=C(F)F)s1 (stereo not drawn) [Compound 328]	< 3	
CO/N=C(\C)c1cnc(S(=O)(=O)CCC(F)=C(F)F)s1 [Compound 53]	< 3	
O=S(=O)(CCC(F)=C(F)F)c1ncc(C(F)F)s1 [Compound 329]	< 3	
N#Cc1cnc(SCCC(F)=C(F)F)o1 [Compound 331]	< 3	
Cc1nc(S(=O)(=O)CCC(F)=C(F)F)sc1C#N [Compound 339]	< 3	
CO/N=C/c1oc(SCCC(F)=C(F)F)nc1C [Compound 238]	< 3	
CO/N=C/c1cnc(SCCC=C(F)F)s1 [Compound 234]	< 3	
Cc1nc(S(=O)(=O)CCC(F)=C(F)F)oc1C(F)F [Compound 350]	< 3	
N#Cc1cnc([S+]([O-])CCC(F)=C(F)F)o1 (stereo not drawn) [Compound 333]	< 3	
[O-][S+](CCC(F)=C(F)F)c1ncc(-c2ncon2)s1 (stereo not drawn) [Compound 213]	< 3	
CO/N=C(/c1oc([S+]([O-])CCC(F)=C(F)F)nc1C)C(C)C (stereo not drawn) [Compound 273]	< 3	
CC(C)CCO/N=C/c1cnc(SCCC(F)=C(F)F)s1 [Compound 34]	< 3	
CO/N=C\c1cnc(S(=O)(=O)CCC=C(F)F)s1 [Compound 236]	< 3	
Cc1nc([S+]([O-])CCC(F)=C(F)F)sc1C(F)F (stereo not drawn) [Compound 337]	< 3	
CO/N=C(\C)c1cnc([S+]([O-])CCC(F)=C(F)F)o1 (stereo not drawn) [Compound 130]	< 3	
CO/N=C/c1cnc(SCCC=C(F)F)o1 [Compound 290]		> 90%
CCO/N=C(\C)c1cnc(SCCC(F)=C(F)F)o1 [Compound 132]	< 3	

SMILES	gall rating (0-10 scale, Zeck 1971) (Meloidogyne incognita [1])	mortality (Meloidogyne incognita [2])
CO/N=C(/C)c1cnc(S(=O)(=O)CCC(F)=C(F)F)o1 [Compound 134]	< 3	
CCO/N=C\c1cnc(SCCC(F)=C(F)F)o1 [Compound 13]	< 3	
CCO/N=C/c1cnc([S+]([O-])CCC(F)=C(F)F)o1 (stereo not drawn) [Compound 36]	< 3	
Cc1nc([S+]([O-])CCC(F)=C(F)F)sc1C#N (stereo not drawn) [Compound 338]	< 3	
CO/N=C\c1cnc(SCCC=C(F)F)s1 [Compound 235]	< 3	
Cc1nc(S(=O)(=O)CCC(F)=C(F)F)sc1C(F)F [Compound 340]	< 3	
N#Cc1cnc(S(=O)(=O)CCC(F)=C(F)F)s1 [Compound 332]	< 3	
N#Cc1cnc(SCCC(F)=C(F)F)s1 [Compound 327]	< 3	
CCO/N=C/c1cnc(S(=O)(=O)CCC(F)=C(F)F)s1 [Compound 23]	< 3	
Cc1nc([S+]([O-])CCC(F)=C(F)F)oc1C#N (stereo not drawn) [Compound 348]	< 3	
CCO/N=C\c1cnc(S(=O)(=O)CCC=C(F)F)s1 [Compound 233]	< 3	
CCO/N=C/c1cnc(S(=O)(=O)CCC=C(F)F)s1 [Compound 237]	< 3	
Cc1csc(S(=O)(CCC(F)=C(F)F)=NC#N)n1 (stereo not drawn) [Compound 183]	< 3	
[O-][S+](CCC(F)=C(F)F)c1ncc(/C=N\OCC2CC2)o1 (stereo not drawn) [Compound 103]	< 3	
FC(F)=C(F)CCSc1ncc(C(F)F)o1 [Compound 330]	< 3	
[O-][S+](CCC(F)=C(F)F)c1ncc(C(F)F)s1 (stereo not drawn) [Compound 326]	< 3	
